# Measured values published in patent US6534524B1, “Indazole compounds and pharmaceutical compositions for inhibiting protein kinases, and methods for their use” (Agouron Pharmaceuticals, Inc., priority 1999, dated 2003).
# Where two headings read alike, the source gives them in different places.
# Key:
# [1] = molecular target: phosphorylated VEGF-R2Δ50 (FLVK-P) (Homo sapiens, UniProt P35968, DEL940-989/E990V); assay: VEGF-R2 coupled spectrophotometric assay, phosphorylated VEGF-R2Δ50 (FLVK-P)
# [2] = Human liver microsome (HLM) assay; type: in vitro ADME; details: human liver microsomes, 5 μM test compound
# Outline: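 Compound metabolism in human liver microsomes measured in triplicate. Samples at 0 and 2 h centrifuged at 14000 g for 10 min and analysed by LC-MS.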
# [3] = molecular target: unphosphorylated VEGF-R2Δ50 (FLVK) (Homo sapiens, UniProt P35968, DEL940-989/E990V); assay: VEGF-R2 coupled spectrophotometric assay, unphosphorylated VEGF-R2Δ50 (FLVK); details: FLVK Ki, Table 1
# human FGF-R1 = human FGF-R1 (Homo sapiens, UniProt P11362, C488A/C584S/L457V); assay: FGF-R spectrophotometric assay
# [4] = Determination of inhibitor concentration in mouse plasma after intraperitoneal and oral dosing; type: in vivo; details: for concentration at 7 h: female
# Outline: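 Mice dosed intraperitoneally or orally; blood taken by ocular bleed at 0.5, 1 and 4 h and by intracardiac puncture at 7 h. Plasma extracted with ethyl acetate after internal standard and NaOH addition, analysed by HPLC or LC-MS against a mouse-plasma standard curve.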
# [5] = IP, 25 mg/kg, vehicle PEG400:H2O pH 2.3 30:70
# [6] = PO, 25 mg/kg, vehicle PEG400:H2O pH 2.3 30:70
# [7] = PO, 25 mg/kg, vehicle PEG400:H2O pH 2.3 30:70, read-out: Cmin (7 hr conc.)
# [8] = IP, 25 mg/kg, vehicle PEG400:H2O pH 2.3 60:40
# [9] = PO, 50 mg/kg, vehicle PEG400:H2O pH 2.3 60:40
# human FGF-R1, sequence (P11362 456-766 L457V/C488A/C584S): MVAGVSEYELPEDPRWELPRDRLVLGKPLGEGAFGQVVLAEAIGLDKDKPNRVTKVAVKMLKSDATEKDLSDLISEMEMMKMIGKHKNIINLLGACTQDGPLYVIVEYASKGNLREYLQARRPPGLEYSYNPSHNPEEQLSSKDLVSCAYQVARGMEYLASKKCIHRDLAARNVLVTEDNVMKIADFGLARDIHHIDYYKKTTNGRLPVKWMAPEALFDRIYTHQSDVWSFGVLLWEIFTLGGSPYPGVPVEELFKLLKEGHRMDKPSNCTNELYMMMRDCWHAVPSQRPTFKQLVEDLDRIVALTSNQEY
# phosphorylated VEGF-R2Δ50 (FLVK-P), sequence (P35968 with tags, fused parts or gaps DEL940-989/E990V limits assumed): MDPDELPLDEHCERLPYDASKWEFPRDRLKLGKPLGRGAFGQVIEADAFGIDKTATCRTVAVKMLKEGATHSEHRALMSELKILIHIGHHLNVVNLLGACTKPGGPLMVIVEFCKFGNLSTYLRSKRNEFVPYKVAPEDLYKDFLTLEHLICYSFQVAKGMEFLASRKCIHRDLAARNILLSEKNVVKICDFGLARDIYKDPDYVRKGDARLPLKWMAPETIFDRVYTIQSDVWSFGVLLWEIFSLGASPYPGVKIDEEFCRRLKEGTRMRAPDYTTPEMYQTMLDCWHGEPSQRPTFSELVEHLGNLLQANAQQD
# unphosphorylated VEGF-R2Δ50 (FLVK), sequence (P35968 with tags, fused parts or gaps DEL940-989/E990V limits assumed): as above
structure (smiles),measurement,setting,value
"Nc1cccc(C(=O)c2ccc3c(/C=C/c4ccccn4)n[nH]c3c2)c1 [Example 40(a), 6(3-Amino-benzoyl)-3-E-[2-(pyridin-2-yl)ethenyl]-1H-indazole]",Ki,[1],17.9 nM
Nc1cccc(Nc2ccc3c(/C=C/c4ccccc4)n[nH]c3c2)c1 [Example 46],Ki,[1],3.5 nM
"Cc1cc(C(=O)Nc2cccc(C(=O)c3ccc4c(/C=C/c5ccccn5)n[nH]c4c3)c2)n(C)n1 [Example 41(p), 6-[3-((1,3-Dimethyl-1H-pyrazol-5-yl)carboxamido)benzoyl]-3-E-[2-(pyridin-2-yl)ethenyl]-1H-indazole]","% remain (HLM, 2 h)",[2],62%
same,Ki,[3],0.06 nM
same,Ki,human FGF-R1,90 nM
same,AUClast,[4]; [5],4150 ng·h/mL
same,plasma half-life (T1/2),[4]; [5],5.5 h
same,concentration at 7 h,"[4]; IP, 25 mg/kg, vehicle PEG400:H2O pH 2.3 30:70, read-out: Cmin (7 hr conc.)",380 ng/mL
O=C(NNc1ccccn1)c1ccccc1Sc1ccc2c(/C=C/c3ccccn3)n[nH]c2c1 [Example 35(n)],"% remain (HLM, 2 h)",[2],47%
same,Ki,[3],0.83 nM
same,Ki,human FGF-R1,92 nM
same,AUClast,[4]; [6],4818 ng·h/mL
same,Cmax,[4]; [6],3545 ng/mL
same,plasma half-life (T1/2),[4]; [6],1.4 h
same,concentration at 7 h,[4]; [7],55 ng/mL
O=C(Nc1cccc(C(=O)c2ccc3c(/C=C/c4ccccc4)n[nH]c3c2)c1)OCc1ccccc1 [Example 19(c)],Ki,[1],5.9 nM
"Cc1cc(C(=O)Nc2cccc(C(=O)c3ccc4c(/C=C/c5ccccn5)n[nH]c4c3)c2)n(C(C)C)n1 [Example 41(x), 6-[3-((1-Isopropyl-3-methyl-1H-pyrazol-5-yl)carboxamido)benzoyl]-3-E-[2-(pyridin-2-yl)ethenyl]-1H-indazole]",Ki,human FGF-R1,3.4 nM
same,AUClast,[4]; [6],24174 ng·h/mL
same,Cmax,[4]; [6],4587 ng/mL
same,plasma half-life (T1/2),[4]; [6],4.2 h
same,concentration at 7 h,[4]; [7],1270 ng/mL
"CC(C)C(=O)Nc1cccc(C(=O)c2ccc3c(/C=C/c4ccccc4)n[nH]c3c2)c1 [Example 19(h), 6-[3-(2-Methylpropionamido)benzoyl]-3-E-styryl-1H-indazole]",Ki,[1],5.9 nM
"O=C(Nc1cccc(Cl)c1)c1ccccc1Sc1ccc2c(/C=C/c3ccccn3)n[nH]c2c1 [Example 33(d), 6-[2-(3-Chlorophenylcarbamoyl)phenylsulfanyl]-3-E-[2-(pyridin-2-yl)ethenyl]-1H-indazole]","% remain (HLM, 2 h)",[2],22%
same,Ki,[3],0.14 nM
same,Ki,human FGF-R1,24 nM
same,AUClast,[4]; [8],5080 ng·h/mL
same,plasma half-life (T1/2),[4]; [8],1.6 h
same,AUClast,[4]; [9],4744 ng·h/mL
same,plasma half-life (T1/2),[4]; [9],0.9 h
same,concentration at 7 h,"[4]; IP, 25 mg/kg, vehicle PEG400:H2O pH 2.3 60:40, read-out: Cmin (7 hr conc.)",113 ng/mL
same,concentration at 7 h,"[4]; PO, 50 mg/kg, vehicle PEG400:H2O pH 2.3 60:40, read-out: Cmin (7 hr conc.)",8 ng/mL
"C=C(c1cccc(NC(=O)c2ccccc2)c1)c1ccc2c(/C=C/c3ccccc3)n[nH]c2c1 [Example 22(b), 6-(1-(3-(Benzoylamido)phenyl)-vinyl)-3-styryl-1H-indazole]",Ki,[1],1.2 nM
same,Ki,[3],0.63 nM
CN(c1cccc(NC(=O)c2ccc(O)c(C(C)(C)C)c2)c1)c1ccc2c(/C=C/c3ccc4c(c3)OCO4)n[nH]c2c1 [Example 16(f)],Ki,[1],2.8 nM
"O=C(Nc1cccc(Sc2ccc3c(/C=C/c4ccccc4)n[nH]c3c2)c1)c1ccccc1 [Example 20(b), 6(3-(Benzoylamido)-phenylsulfanyl)-3-styryl-1H-indazole]",Ki,[1],8 nM
same,Ki,[3],1.6 nM
"CC(=O)N1CCC(C(=O)Nc2cccc(Oc3ccc4c(/C=C/c5ccc(Cl)cc5)n[nH]c4c3)c2)CC1 [Example 30(b), 6-[3-(1-Acetylpiperidin-4-ylcarboxamido)phenoxy]-3-E-[2-(4-chlorophenyl)ethenyl]-1H-indazole]",Ki,[1],2.2 nM
"O=C(Nc1cccc(C(=O)c2ccc3c(/C=C/c4ccccc4)n[nH]c3c2)c1)c1ccccc1 [Example 19(b), N-[3-(3-Styryl-1H-indazole-6-carbonyl)-phenyl]-benzamide]",Ki,[1],6.6 nM
same,Ki,[3],0.49 nM
same,plasma half-life (T1/2),[4]; [9],∞
